Data reported in patent US11649222B2, “Compounds” (UNIVERSITETET I OSLO, priority 2016, dated 2023).
“And” between values parts separate entries of the source, which are not always exact repeats. Identical values can stand only once. Like-named read-outs stand apart in the source and are kept apart here.

Experiments:
[1] = system: Klebsiella pneumoniae strain 50752501 harbouring NDM-1; assay: In vivo peritonitis infection study in neutropenic mice; design: Score at sampling: scale not given here; settings: for Blood log CFU/ml mean / Blood log CFU/ml / Score at sampling / Pf log CFU/ml mean / Pf log CFU/ml: sampling T = 5; for Blood log CFU/ml / Score at sampling / Pf log CFU/ml: individual mice; for Pf log CFU/ml mean / Pf log CFU/ml: peritoneal fluid
Description: The purpose of this study was to investigate the synergy between a typical example of the present invention and a state of art carbapenem in a clinically relevant multiresistant Gram-negative bacterial strain harboring a metallo-β-lactamase in the treatment of live mice infected with the bacterial strain.
The mice were rendered neutropenic by injecting 0.5 ml cyclophosphamide solution intraperitoneally 4 days (approximately 200 mg/kg) and 1 day (approximately 100 mg/kg) prior to inoculation.
Fresh overnight colonies from a 5% Horse Blood Agar plate were suspended and diluted in sterile saline to approximately and 10^7 CFU/ml. Mice were inoculated intraperitoneally with 0.5 ml of the suspension. Approximately ½ hr prior to inoculation, mice were treated orally with 45 μl neurophen (20 mg ibuprofen/ml corresponding to approximately 30 mg/kg) as a pain relief.
Mice were treated subcutaneously in the neck region with.
Colony counts were determined from blood and peritoneal fluid at 1 and 5 hrs post inoculation. […] The mice were sacrificed immediately after blood sampling and a total of 2 ml sterile saline was injected i.p. and the abdomen gently massaged before it was opened and fluid sampled with a pipette. Each sample was then 10 fold serial diluted in saline and 20-μl spots, ranging from undiluted to a 10^6 dilution, were applied on agar plates in duplicates. […] All agar plates were incubated 18-22 hrs at 35° C. in ambient air.

human hepG2 cells = assay: In vitro toxicity in human hepG2 cells (AlamarBlue viability); type: cell-based; settings: for IC50: human hepG2 cells
How it was run: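 HepG2 cells at 20,000/well adhered overnight, then were exposed to compounds at 1 to 1×10^−6 mM (DMSO ≤1%) for 24 h at 37 °C. Viability was read with AlamarBlue (10% final) after a further 4 h at 37 °C.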

[2] = Solution stability on storage, measured indirectly by MIC; type: physicochemical; settings: solution stored at 2-8° C.; MIC at 25 mg/L inhibitor
Source text: P. aeruginosa harboring VIM-2 and K. pneumonia bearing NDM-1 was used as two indicator strains.

rH glyoxylase II = rH glyoxylase II (Homo sapiens, UniProt Q16775); assay: Interaction with zinc-containing human enzyme; type: biochemical; settings: 62.5-500 μM, 30 min, 25° C.
E. coli (NDM) = assay: Microbroth dilution MIC of meropenem ± 25 mg/L inhibitor; type: cell-based; settings: E. coli NDM (several strains)
Description: (§1) • Plate bacterial strain(s) on appropriate media: • Gram-negative bacteria with ESBLs or carbapenemases: green agar plates with 100 mg/L ampicillin • Gram-negative bacteria without β-lactamases: green agar plates • Gram-positive bacteria (Staphylococci and Enterococci): blood agar plates • Incubate o.n. at 37° C. Day 2: Prepare the Bacterial Inoculum: • Prepare a 0.5 McFarland suspension of bacteria in 0.85% NaCl. (Should be used within 15 min of preparation). • Dilute the 0.5 McFarland suspension 1:100 into MH broth. Check the inoculum by diluting the prepared bacterial suspension 1:100 (10 μl bacterial suspension+990 μl 0.85% NaCl). Plate 10 μl of the dilution on MH agar plates (×2). Incubate o.n. at 37° C., count the colonies and calculate the final CFU/ml inoculum in the plate by multiplying the average number of colonies with 10000 and divide by 2. The final inoculum should be between 3-7×10^5 CFU/ml. • Add 50 μl of the prepared bacterial suspension to each well in the microtiter plate except negative growth control. Preparation of Compounds/Antibiotics • Calculate the desired concentration-range and volume of the compounds/antibiotics in the assay. […] Dilute the stock solution in MH broth. Make subsequent 2-fold dilutions in MH broth of the desired concentrations if a concentration range is to be tested (remember the extra dilution factor in the assay plate). Always include extra volume for pipetting. Take into consideration stock solutions that are made in buffers that have an effect on bacterial growth (e.g. DMSO).

K. pneumoniae (NDM) = assay: as above; type: cell-based; settings: K. pneumoniae NDM (several strains)
Description: as §1

[3] = system: Klebsiella pneumoniae harboring NDM-1; assay: Time-kill study with meropenem; type: cell-based
Description: Mueller-Hinton broth (MHB) was warmed from fridge temperature cold. […] A sample of Example 26 was dissolved in DMSO.
The 96-well plates were prepared using a multi-channel pipette, adding […] PBS to columns 2-9, or the required number of dilutions needed in the experiment. Each Inoculum was prepared by picking a single colony from the fresh plate that was disperged into 1 mL MHB, the loop was agitated to ensure all the colony comes off the loop. The tube was Vortex mixed, and a 100 μL aliquot was taken from the tube into 9.9 mL of MHB into the media bottle. […] The procedure was repeated for as many samples needed in the study. Aliquots of 5 mL inoculum were transferred to as many media bottles as needed, e.g. 4 mg/L MEM, 4 mg/L MEM+50 μM test substance, 4 mg/L MEM+100 μM test substance. Then […] aliquots were taken from each culture and added to Column 1 on the 96 well plate, e.g. culture 1: 50 μl into A1, […] into B1 etc. for time point 0 h. Then […] MEM was added into each bottle, followed by the required amount of test substance. The bottles were mixed gently to avoid formation of bubbles, and incubated in a secondary container at 37° C. at 180 rpm. Finally, serial dilutions were performed using multi-channel pipette taking 30 μL for column 1, adding to column 2, mixing well, repeating from column 2 to 3 with clean pipette tips.

[4] = Example 26 10 mg/kg s.c. + meropenem 33 mg/kg
[5] = Example 26 10 mg/kg s.c. + vehicle
[6] = Example 26 10 mg/kg s.c. + vehicle, 10 mg/kg
[7] = Example 26 33 mg/kg s.c. + meropenem 33 mg/kg
[8] = Example 26 33 mg/kg s.c. + vehicle
[9] = Example 26 33 mg/kg s.c. + vehicle, 33 mg/kg
[10] = Example 26 100 mg/kg s.c. + meropenem 33 mg/kg
[11] = Example 26 100 mg/kg s.c. + vehicle
[12] = Example 26 100 mg/kg s.c. + vehicle, 100 mg/kg
[13] = combination treatment with Example 26 and meropenem

CN(C[C@H](O)[C@@H](O)[C@H](O)[C@H](O)CO)C(=O)c1ccc(CN(Cc2ccccn2)Cc2ccccn2)nc1 [Example 26, 6-((bis(pyridin-2-ylmethyl)amino)methyl)-N-methyl-N-((2S,3R,4R,5R)-2,3,4,5,6-pentahydroxyhexyl)nicotinamide]
reduction of the CFU levels compared to vehicle treatment in blood and peritoneal fluid ([1]; 10-100 mg/kg Example 26 alone): did not result in reduction of the CFU levels
Blood log CFU/ml mean [1, 4]: 1.61 log CFU/ml
Blood log CFU/ml [1, 4]: 1.90 log CFU/ml and 1.00 log CFU/ml and 1.85 log CFU/ml and 1.70 log CFU/ml
Score at sampling [1, 4]: 2
Blood log CFU/ml mean [1, 5]: 5.88 log CFU/ml
Score at sampling [1, 5]: 2
Blood log CFU/ml [1, 6]: 6.02 log CFU/ml and 5.70 log CFU/ml and 5.90 log CFU/ml and 5.89 log CFU/ml
Blood log CFU/ml mean [1, 7]: 1.26 log CFU/ml
Blood log CFU/ml [1, 7]: 1.78 log CFU/ml (2×) and 1.00 log CFU/ml and 0.50 log CFU/ml
Score at sampling [1, 7]: 1
Blood log CFU/ml mean [1, 8]: 5.89 log CFU/ml
Score at sampling [1, 8]: 1
Blood log CFU/ml [1, 9]: 5.83 log CFU/ml and 5.54 log CFU/ml and 6.78 log CFU/ml and 5.40 log CFU/ml
Blood log CFU/ml mean [1, 10]: 1.18 log CFU/ml
Blood log CFU/ml [1, 10]: 1.30 log CFU/ml and 0.50 log CFU/ml and 1.90 log CFU/ml and 1.00 log CFU/ml
Score at sampling [1, 10]: 1
Blood log CFU/ml mean [1, 11]: 5.84 log CFU/ml
Score at sampling [1, 11]: 1
Blood log CFU/ml [1, 12]: 5.83 log CFU/ml and 6.05 log CFU/ml and 5.48 log CFU/ml and 6.02 log CFU/ml
lower CFU levels compared to vehicle treatment, blood [1, 13]: 3.95-4.38 log10
lower CFU levels compared to vehicle treatment, peritoneal fluid [1, 13]: 3.57-3.66 log10
Pf log CFU/ml mean [1, 4]: 3.83 log CFU/ml
Pf log CFU/ml [1, 4]: 4.18 log CFU/ml and 3.83 log CFU/ml and 3.60 log CFU/ml and 3.72 log CFU/ml
Pf log CFU/ml mean [1, 5]: 7.79 log CFU/ml
Pf log CFU/ml [1, 6]: 7.92 log CFU/ml and 7.68 log CFU/ml and 7.76 log CFU/ml and 7.81 log CFU/ml
Pf log CFU/ml mean [1, 7]: 3.80 log CFU/ml
Pf log CFU/ml [1, 7]: 3.88 log CFU/ml and 3.80 log CFU/ml and 3.68 log CFU/ml and 3.85 log CFU/ml
Pf log CFU/ml mean [1, 8]: 7.60 log CFU/ml
Pf log CFU/ml [1, 9]: 7.68 log CFU/ml and 7.51 log CFU/ml and 7.88 log CFU/ml and 7.35 log CFU/ml
Pf log CFU/ml mean [1, 10]: 3.74 log CFU/ml
Pf log CFU/ml [1, 10]: 3.65 log CFU/ml (2×) and 3.74 log CFU/ml and 3.92 log CFU/ml
Pf log CFU/ml mean [1, 11]: 7.93 log CFU/ml
Pf log CFU/ml [1, 12]: 8.24 log CFU/ml and 7.89 log CFU/ml and 7.63 log CFU/ml and 7.98 log CFU/ml
EC50 in hepG2 cells (human hepG2 cells; hepG2 cells): non-toxic
IC50 (human hepG2 cells; 24 hours, AlamarBlue, 8 replicates, read-out: IC50): > 1000 µM
IC50 (human hepG2 cells; read-out: IC50h): ≥ 116 µM
storage time at which a loss of activity was observed [2]: > 8 months
interaction with rH glyoxylase II (rH glyoxylase II): does not interact with rH glyoxylase II
MIC meropenem + 25 mg/L Example 26 (E. coli (NDM)): 0.125 µg/mL
MIC meropenem + 25 mg/L Example 26 (K. pneumoniae (NDM)): 0.06 µg/mL
time after which CFU drops to below the limit of detection (LOD) ([3]; Example 26 + 4 mg/L meropenem, irrespective of the concentration of Example 26): 5 to 10 h
period CFU stays below LOD ([3]; Example 26 + 4 mg/L meropenem, period of the study): ≥ 30 h

C[C@@H](O)[C@H]1C(=O)N2C(C(=O)O)=C(S[C@@H]3CN[C@H](C(=O)N(C)C)C3)[C@H](C)[C@H]12 [meropenem, reference compound]
lower CFU levels compared to vehicle treatment, blood ([1]; meropenem alone): 2.5 log10
lower CFU levels compared to vehicle treatment, peritoneal fluid ([1]; meropenem alone): 2.2 log10
Pf log CFU/ml mean ([1]; vehicle + meropenem 33 mg/kg): 5.22 log CFU/ml
Pf log CFU/ml ([1]; vehicle + meropenem 33 mg/kg): 5.72 log CFU/ml and 4.60 log CFU/ml and 5.30 log CFU/ml and 5.24 log CFU/ml
Blood log CFU/ml mean ([1]; vehicle + meropenem 33 mg/kg): 2.98 log CFU/ml
Blood log CFU/ml ([1]; vehicle + meropenem 33 mg/kg): 3.51 log CFU/ml (2×) and 2.80 log CFU/ml and 2.10 log CFU/ml
Score at sampling ([1]; vehicle + meropenem 33 mg/kg): 2
time after which CFU starts to increase ([3]; 4 mg/L meropenem alone): about 5 hours
